Non-standard residues stand in square brackets, D forms with d. Primed or numbered codes have the meaning given here. No end group written: not given here. Orn(N3)′ = its azide, alkyne or alkene has reacted where a group follows in round brackets; Orn(N3) = [N-]=[N+]=NCCC[C@H](N)C(=O)O; tri‑GalNAc‑DBCO = not defined here
What was measured:
integrin αvβ5 = molecular target: T1, integrin αvβ5 (Homo sapiens, UniProt P06756+P18084); assay: Cell surface integrin levels by live-cell flow cytometry in HEPG2 cells, anti-αvβ5 detection; assay type: cell-based; conditions: 44 h, 100 nM
T1 construct: endogenous in cells; host or cells: HEPG2
T1 sequence (P06756 31-889 limits assumed): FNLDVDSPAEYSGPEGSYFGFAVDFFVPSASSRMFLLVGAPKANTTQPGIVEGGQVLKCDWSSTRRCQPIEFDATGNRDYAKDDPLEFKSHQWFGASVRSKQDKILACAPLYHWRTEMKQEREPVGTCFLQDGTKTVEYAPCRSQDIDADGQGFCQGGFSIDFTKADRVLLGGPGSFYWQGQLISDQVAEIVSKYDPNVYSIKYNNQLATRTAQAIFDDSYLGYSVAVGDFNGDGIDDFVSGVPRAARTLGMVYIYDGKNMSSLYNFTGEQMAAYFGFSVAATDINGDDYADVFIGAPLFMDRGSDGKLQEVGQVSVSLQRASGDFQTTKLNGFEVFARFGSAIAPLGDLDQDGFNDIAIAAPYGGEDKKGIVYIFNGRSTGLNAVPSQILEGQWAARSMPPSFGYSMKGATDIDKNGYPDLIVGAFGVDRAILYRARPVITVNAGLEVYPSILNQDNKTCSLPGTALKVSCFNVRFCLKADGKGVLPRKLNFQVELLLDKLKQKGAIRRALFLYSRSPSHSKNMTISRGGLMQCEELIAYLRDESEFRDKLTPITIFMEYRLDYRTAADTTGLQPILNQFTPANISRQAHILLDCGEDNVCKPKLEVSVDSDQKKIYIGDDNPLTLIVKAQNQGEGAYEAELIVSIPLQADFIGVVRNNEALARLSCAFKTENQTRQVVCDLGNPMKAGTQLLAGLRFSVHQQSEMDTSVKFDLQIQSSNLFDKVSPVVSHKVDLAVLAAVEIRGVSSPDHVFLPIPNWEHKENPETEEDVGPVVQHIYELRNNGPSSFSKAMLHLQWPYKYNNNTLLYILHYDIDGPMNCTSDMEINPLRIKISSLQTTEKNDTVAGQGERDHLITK
T1 sequence (P06756 891-1048 partner limits assumed): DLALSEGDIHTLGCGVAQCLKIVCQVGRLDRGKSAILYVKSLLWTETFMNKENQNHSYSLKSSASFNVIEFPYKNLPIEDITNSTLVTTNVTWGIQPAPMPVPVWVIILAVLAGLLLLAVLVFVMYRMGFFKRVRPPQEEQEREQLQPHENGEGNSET
T1 sequence (P18084 24-799): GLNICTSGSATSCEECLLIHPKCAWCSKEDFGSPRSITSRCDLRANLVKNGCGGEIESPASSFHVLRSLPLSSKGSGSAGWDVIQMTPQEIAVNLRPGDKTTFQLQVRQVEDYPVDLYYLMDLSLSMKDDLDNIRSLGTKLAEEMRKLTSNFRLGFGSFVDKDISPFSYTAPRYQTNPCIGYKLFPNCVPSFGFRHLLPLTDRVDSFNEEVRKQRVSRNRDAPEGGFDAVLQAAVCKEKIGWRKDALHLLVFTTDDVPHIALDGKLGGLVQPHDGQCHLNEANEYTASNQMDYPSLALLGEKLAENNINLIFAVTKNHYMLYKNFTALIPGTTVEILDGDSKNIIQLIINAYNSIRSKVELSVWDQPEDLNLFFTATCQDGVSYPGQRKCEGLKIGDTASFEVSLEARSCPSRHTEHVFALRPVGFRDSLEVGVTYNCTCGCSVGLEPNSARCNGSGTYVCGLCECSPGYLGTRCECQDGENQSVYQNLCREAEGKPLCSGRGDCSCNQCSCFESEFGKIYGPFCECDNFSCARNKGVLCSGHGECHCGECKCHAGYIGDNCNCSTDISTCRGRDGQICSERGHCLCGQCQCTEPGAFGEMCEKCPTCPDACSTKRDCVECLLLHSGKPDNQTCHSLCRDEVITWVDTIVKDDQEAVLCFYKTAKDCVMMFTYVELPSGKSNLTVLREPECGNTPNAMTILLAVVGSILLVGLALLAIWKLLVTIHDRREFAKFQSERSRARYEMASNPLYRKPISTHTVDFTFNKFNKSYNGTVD
Description: (§1) FIG. 13 Panel A: Synthesis of PIP—GaINAc. Tri-GaINAc-DBCO was conjugated to PIP, a knottin peptide that binds to multiple integrins. Panel B: Degradation of cell surface integrins in HEPG2 cells as determined by live-cell flow cytometry following 44 h of treatment with 100 nM PIP or PIP—GaINAc. Anti-αvβ3, anti-αvβ5 and PIP-Fc fusion construct were used for detection. PIP was genetically fused to the Fc domain of a mouse IgG2a to generate a PIP-Fc fusion construct that measures the surface expression of integrins recognized by PIP. Panel C: Percent proliferation of HEPG2 cells following 44 h of treatment with 50 nM, 100 nM or 200 nM PIP or PIP—GaINAc. Proliferation was quantified by phase confluence over time using IncuCyte. Panel D: Time course of percent proliferation of HEPG2 cells during 44 h of treatment with 200 nM PIP or PIP—GaINAc. Panel E: Percent proliferation of HEPG2 cells for 6 d following wash-out. Cells were treated with 200 nM PIP or PIP—GaINAc on day 0. PIP+ and PIP—GaINAc+ indicate the conditions where cells were washed on day 4 and replaced with fresh medium without treatment. […] P values were determined by unpaired two-tailed t-tests.
(§2) The surface levels of integrins were measured by flow cytometry following treatment in HEPG2 cells. […] Nonetheless, the total surface level of integrins that bind to PIP was determined by utilizing a PIP-Fc fusion for staining of the Fc fragment. […]

[1] = system: integrins that bind to PIP; assay: Total surface level of integrins that bind to PIP, PIP-Fc fusion detection, HEPG2 cells; assay type: cell-based; conditions: 44 h, 100 nM, flow cytometry
Description: as §1, §2

HEPG2 cells = assay: Antiproliferation assay (IncuCyte phase confluence); assay type: cell-based; conditions: for cell morphology: 100 nM, live imaging over 5 days following treatment; for antiproliferative phenotype after wash-out: 200 nM on day 0, washed on day 4, followed 6 d
Description: FIG. 13 Panel A: Synthesis of PIP—GaINAc. Tri-GaINAc-DBCO was conjugated to PIP, a knottin peptide that binds to multiple integrins. Panel B: Degradation of cell surface integrins in HEPG2 cells as determined by live-cell flow cytometry following 44 h of treatment with 100 nM PIP or PIP—GaINAc. Anti-αvβ3, anti-αvβ5 and PIP-Fc fusion construct were used for detection. PIP was genetically fused to the Fc domain of a mouse IgG2a to generate a PIP-Fc fusion construct that measures the surface expression of integrins recognized by PIP. Panel C: Percent proliferation of HEPG2 cells following 44 h of treatment with 50 nM, 100 nM or 200 nM PIP or PIP—GaINAc. Proliferation was quantified by phase confluence over time using IncuCyte. Panel D: Time course of percent proliferation of HEPG2 cells during 44 h of treatment with 200 nM PIP or PIP—GaINAc. Panel E: Percent proliferation of HEPG2 cells for 6 d following wash-out. Cells were treated with 200 nM PIP or PIP—GaINAc on day 0. PIP+ and PIP—GaINAc+ indicate the conditions where cells were washed on day 4 and replaced with fresh medium without treatment. PIP++ and PIP—GaINAc++ indicate the conditions where cells were washed on day 4 and replaced with fresh medium containing 200 nM PIP or PIP—GaINAc. Panel F: Live HEPG2 imaging by IncuCyte throughout the 5 d after treatment with 100 nM PIP or PIP—GaINAc. Images are representative of three independent experiments for F. Data in B-E represent three independent experiments, where B and C show the mean of three independent experiments ±s.e.m. P values were determined by unpaired two-tailed t-tests.
HEPG2 cells (100,000 cells per well in a 24-well plate) were treated with various concentrations of PIP or PIP—GaINAc. After treatments were added, cells were imaged every 4 h for the indicated times in the IncuCyte S3 Live-Cell Analysis system using the phase-imaging channel and a ×10 objective. For co-incubation experiments with ASF, 10 mg ml^−1 of ASF (Sigma-Aldrich) was treated with either PIP or PIP—GaINAc. The following analysis parameters were used to quantify phase confluence (%) in the Incucyte software: segmentation adjustment was set to 1, hole fill (μm2) was set to 300 and area minimum (μm^2) was set to 150. No other constraints were selected. Percent proliferation was then calculated by normalizing phase confluence values. Specifically, at any given timepoint n in the treatment time course (t=0→t=n), the change in confluence from t=0 to t=n (Δconfluence t=n) was calculated for each well as follows: Δconfluence t=n of well x=(confluence t=n of well x)−(confluence t=0 of well x), where x represents any given well in the experiment. This ensures that the value of each well is set to 0 at t=0. The average Δconfluence at the final time point of the untreated wells was set as the ‘max value’ (equivalent to 100% proliferation). Finally, data were normalized as follows:
% proliferationt=n=n of well x=(Δconfluencet=n of well x)/(max value),
where it is noted that while the metric is labeled as “% proliferation”, the effects quantitated are the summation of both cell proliferation and cell survival.

[2] = system: tumor-associated integrins; conditions: αvβ3, αvβ5, αvβ6 and α5β1 integrins; cited from earlier work
αvβ3 integrin = molecular target: T2, αvβ3 integrin (Homo sapiens, UniProt P05106+P06756); assay: Cell surface integrin levels by live-cell flow cytometry in HEPG2 cells, anti-αvβ3 detection; assay type: cell-based; conditions: 44 h, 100 nM
T2 construct: endogenous in cells; host or cells: HEPG2
T2 sequence (P06756 31-889 limits assumed): as the sequence (P06756 31-889 limits assumed) above
T2 sequence (P06756 891-1048 partner limits assumed): as the sequence (P06756 891-1048 partner limits assumed) above
T2 sequence (P05106 27-788): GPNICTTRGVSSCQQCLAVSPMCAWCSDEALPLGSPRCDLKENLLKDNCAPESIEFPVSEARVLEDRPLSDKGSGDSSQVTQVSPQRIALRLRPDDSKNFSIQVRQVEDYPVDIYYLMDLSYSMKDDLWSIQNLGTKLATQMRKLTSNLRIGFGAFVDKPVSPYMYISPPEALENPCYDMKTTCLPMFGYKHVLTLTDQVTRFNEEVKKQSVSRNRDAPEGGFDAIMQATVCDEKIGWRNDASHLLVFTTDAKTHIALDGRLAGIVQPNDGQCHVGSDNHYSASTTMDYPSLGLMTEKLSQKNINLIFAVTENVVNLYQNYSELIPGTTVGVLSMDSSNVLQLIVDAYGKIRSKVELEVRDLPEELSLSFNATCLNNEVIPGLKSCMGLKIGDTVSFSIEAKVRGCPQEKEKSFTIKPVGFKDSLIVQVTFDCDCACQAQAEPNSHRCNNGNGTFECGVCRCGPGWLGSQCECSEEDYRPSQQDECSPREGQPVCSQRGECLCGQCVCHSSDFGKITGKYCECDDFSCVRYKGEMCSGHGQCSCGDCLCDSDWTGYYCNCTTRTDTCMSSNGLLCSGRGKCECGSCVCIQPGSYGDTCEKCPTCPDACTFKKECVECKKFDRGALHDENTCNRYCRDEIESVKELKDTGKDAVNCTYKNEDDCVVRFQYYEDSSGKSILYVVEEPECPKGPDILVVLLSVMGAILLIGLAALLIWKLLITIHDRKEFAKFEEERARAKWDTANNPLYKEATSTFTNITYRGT
Description: as §1, §2

[3] = molecular target: integrins that bind to PIP (total surface level on HEPG2 cells); assay: cell-based or functional assay
[4] = molecular target: αvβ3 integrin on HEPG2 cells (UniProt P06756); assay: cell-based or functional assay
Chain of αvβ3 integrin on HEPG2 cells (P06756 31-1048 limits assumed, chain 1 of 2): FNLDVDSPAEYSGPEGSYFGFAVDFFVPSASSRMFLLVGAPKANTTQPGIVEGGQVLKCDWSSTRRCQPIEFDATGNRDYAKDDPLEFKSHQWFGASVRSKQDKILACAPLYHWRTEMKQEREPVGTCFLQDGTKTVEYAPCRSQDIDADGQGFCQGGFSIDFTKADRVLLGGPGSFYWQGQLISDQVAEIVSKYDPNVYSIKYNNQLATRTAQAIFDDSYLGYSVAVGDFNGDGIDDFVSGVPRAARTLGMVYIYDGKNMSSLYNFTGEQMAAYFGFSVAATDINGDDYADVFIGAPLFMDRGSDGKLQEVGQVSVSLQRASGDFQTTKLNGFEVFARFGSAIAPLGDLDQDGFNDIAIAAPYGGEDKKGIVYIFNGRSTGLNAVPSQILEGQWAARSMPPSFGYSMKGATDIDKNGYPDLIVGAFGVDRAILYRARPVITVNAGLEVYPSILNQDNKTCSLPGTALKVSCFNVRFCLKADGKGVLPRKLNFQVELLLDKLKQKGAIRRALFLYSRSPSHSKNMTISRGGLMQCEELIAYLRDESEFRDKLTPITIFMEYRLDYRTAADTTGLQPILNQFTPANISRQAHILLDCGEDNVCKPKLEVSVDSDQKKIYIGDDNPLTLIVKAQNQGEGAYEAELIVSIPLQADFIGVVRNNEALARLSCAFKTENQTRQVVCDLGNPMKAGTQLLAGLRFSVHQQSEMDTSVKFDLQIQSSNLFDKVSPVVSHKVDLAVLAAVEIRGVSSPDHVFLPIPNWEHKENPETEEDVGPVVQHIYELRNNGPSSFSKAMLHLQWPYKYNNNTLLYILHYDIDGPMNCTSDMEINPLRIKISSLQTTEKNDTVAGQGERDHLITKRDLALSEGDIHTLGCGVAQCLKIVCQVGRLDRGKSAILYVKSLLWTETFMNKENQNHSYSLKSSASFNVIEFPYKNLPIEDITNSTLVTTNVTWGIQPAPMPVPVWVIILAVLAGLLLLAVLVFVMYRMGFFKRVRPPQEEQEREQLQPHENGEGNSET
Chain of αvβ3 integrin on HEPG2 cells (P05106 27-788 limits assumed, chain 2 of 2, further chain): as the sequence (P05106 27-788) above

[5] = system: cation independent M6PR (CIM6PR); conditions: compared to mannose-6-phosphate glycans; cited from earlier work
[6] = compared to mannose-6-phosphate glycans; cited from earlier work

PIP: polyspecific integrin-binding knottin peptide, 33-mer (SEQ ID NO:42); 5-azido-L-norvaline at position 15, tyrosine at position 31 (GCPRPRGDNPPLTC[Orn(N3)]QDSDCLAGCVCGPNGYCG; disulfide (positions not given here); not fully specified (bridges); also: further groups not given here)
effect on surface expression of integrin αvβ5 (integrin αvβ5): increased the expression
integrins depleted (detection of PIP-Fc) [1]: 40%
cell morphology (HEPG2 cells): epithelial-like clusters
antiproliferative phenotype after wash-out (HEPG2 cells): wash-out rescued proliferation
binding affinity to tumor-associated integrins [2]: high affinity

PIP—GaINAc: PIP knottin with azido-norvaline site-specifically conjugated via a single tri-GaINAc-DBCO moiety (GCPRPRGDNPPLTC[Orn(N3)′](tri‑GalNAc‑DBCO)QDSDCLAGCVCGPNGYCG; disulfide (positions not given here); not fully specified (bridges); reading uncertain; also: further groups not given here)
depletion of cell surface αvβ3 integrin levels relative to PIP treatment alone (αvβ3 integrin): threefold
effect on surface expression of integrin αvβ5 (integrin αvβ5): modest degradation
integrins depleted (detection of PIP-Fc) [1]: about 60%
cell morphology (HEPG2 cells): formed smaller, circular clusters
antiproliferative phenotype after wash-out (HEPG2 cells): persisted after conjugate wash-out
antiproliferative effect on co-incubation with asialofetuin (ASF), inhibitor of ASGPR (HEPG2 cells; 10 mg ml^−1 ASF): ablated the enhanced antiproliferative effect
inhibition of proliferation (HEPG2 cells; various concentrations (50, 100, 200 nM) and durations of treatment up to 44 h): substantially more effective at inhibiting proliferation than PIP

polyspecific integrin-binding knottin peptide (PIP), synthesized with 5-azido-L-norvaline at position 15 and tyrosine at position 31
depletion of total surface integrins that bind to PIP on HEPG2 cells, detected by PIP-Fc staining (flow cytometry) [3]: 40%

PIP-GalNAc (PIP conjugated to a single tri-GalNAc-DBCO moiety) (peptide)
depletion of total surface integrins that bind to PIP on HEPG2 cells, detected by PIP-Fc staining (flow cytometry) [3]: 60%
cell surface αvβ3 integrin level on HEPG2 cells, live-cell flow cytometry after 44 h of treatment with 100 nM [4]: 3 fold

C=CC(=O)OC[C@@H](O)[C@@H](O)[C@H](O)[C@H](O)C=O [mannose-6-acrylate glycans, mannose-6-acrylate]
relative binding affinity for the CIM6PR [5]: 0.7
serum stability [6]: better serum stability

mannose-6-carboxylate [mannose-6-carboxylate glycans]
relative binding affinity for the CIM6PR [5]: 0.3

Reference: patent publication US20230211001A1, “Lysosomal Targeting Molecules Comprising Knottin Peptides And Related Compositions And Methods” (The Board of Trustees of the Leland Stanford Junior …, priority 2020, published 2023)
